The values that follow come from patent US20120015925A1, “NOVEL BENZOTHIAZEPINE AND BENZOTHIEPINE COMPOUNDS” (ASAHI KASEI PHARMA CORPORATION, priority 2004, published 2012).

Common to all, as to format: in vivo, rat
In assay [1] the test system is rats with partial ligation of the bile duct dosed bile acid. In words: Model for hepatic disorder associated with cholestasis (partial bile duct ligation model), Protocol A: AST, ALT, ALP. The settings on record: Table 11, Protocol A, 0.1 mg/kg oral twice per day for 3.5 days, N=8, mean±standard error. The source says:
(§1) In the present Test Example, a model for the hepatic disorder caused by partial ligation of the bile duct was employed with reference to Kanno's method (Liver, 43, Suppl(1):A126, 2002).
(§2) That is, to the SD (IGS) strain male rats at 7 to 10 weeks of age, the partial ligation of the bile duct was given with opening the abdominal cavity under anesthesia with pentobarbital. Before the operation, the blood was collected from femoral vein, in order to obtain the value before the administration. From the day after the operation, 200 mg/kg of bile acid and the test compound were orally administered forcibly twice per day for 3.5 days (Protocol A). Without giving the partial ligation of the bile duct, 200 mg/kg of bile acid and the test compound were also orally administered forcibly twice per day for 3.5 days (Protocol B). In both cases, the test compound was dissolved or suspended in distilled water or an aqueous solution of 1% HCO 60 (Nippon Chemicals). To the control group, saline was administered. As comparative examples, 25 mg/kg of cholestyramine (supplied from Sigma) or 50 mg/kg of ursodeoxycholic acid (supplied from Mitsubishi Pharma) was administered. For considering the effect of the operation, sham operation (sham group) was performed in some cases. The blood was collected from the abdominal aorta 6 hours after the drug administration on the final day of the experiment. AST (GOT), ALT (GPT) and ALP in the blood were measured using measurement kits (GOT II-HA Test Wako, GPT II-HA Test Wako and Alkaline Phosphor HA Test Wako, all were supplied from Wako Pure Chemical Industries) and using an automatic analyzer (Nitech ANALAYZER SUPER Z818).

Assay [2] deals with rats fed cholesterol food. In words: Blood cholesterol lowering effect in rats fed cholesterol food. Particulars: oral, twice per day, SD (IGS) male rats, serum 3 hours after final administration. In short, it runs like this: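 SD (IGS) male rats, 7–9 weeks old, fed chow with 0.4% cholesterol and 0.5% bile acid for 5 days beforehand; only rats with clearly raised cholesterol used. Compound in distilled water given orally twice daily (n=8; vehicle controls). Serum total and HDL cholesterol measured 3 h after final dose; LDL+VLDL = total − HDL.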

For a further assay, the system named is rats dosed bile acid. Put plainly: Model for hepatic disorder associated with cholestasis, Protocol B (bile acid without partial ligation): AST, ALT, ALP. The settings on record: Table 13, Protocol B, 0.1 mg/kg oral twice per day for 3.5 days, N=8, mean±standard error.
Source text: as §1, §2

As to `CCCCC1(CCCC)CS(=O)(=O)c2ccc(N(C)C)cc2C(c2cccc(NC(=S)CCCCC[N+]34CCC(CC3)CC4)c2)N1.[Br-]` (centres unmarked) [EXAMPLE 1, 1-{5-[3-(3,3-dibutyl-7-dimethylamino-1,1-dioxo-2,3,4,5-tetrahydro-1,4-benzothiazepine-5-yl)phenylthiocarbamoyl]pentyl}-1-azoniabicyclo[2.2.2]octane bromide], the ALT in assay [1] (control group 200 ± 81) turned out to be 61 ± 4 IU/L; in the assay on rats dosed bile acid (control group 82 ± 17) it was 53 ± 6 IU/L. The AST worked out at 182 ± 42 IU/L in assay [1] (control group 400 ± 160) and 100 ± 2 IU/L with rats dosed bile acid (control group 157 ± 35). Further, the ALP in assay [1] (control group 1120 ± 410) is reported as 603 ± 78 IU/L; in the assay on rats dosed bile acid (control group 593 ± 77), 453 ± 50 IU/L. Further, the “LDL + VLDL REDUCTION RATE (%) IN CHOLESTEROL FED RAT MODEL (THERAPEUTIC MODEL)” value stood at 49% in assay [2] (0.3 mg/kg per administration) and 68.4% in assay [2] (1 mg/kg per administration).
